Test results from patent US11192863B2, “Antiviral compounds and methods” (Biotron Limited, priority 2003, dated 2021).
“Also recorded” adds a separate entry of the source. Where two headings read alike, the source gives them in different places.

Legend:
SARS-CoV E protein = SARS-CoV E protein (Severe acute respiratory syndrome coronavirus, UniProt P59637); assay type: cell-based
Vpu protein = Vpu protein (Human immunodeficiency virus type 1 group M subtype B, UniProt P05919); conditions: for Vpu Inhibition (score/# of times tested): halo of growth score between zero and six, XL1-blue E. coli with pPL-Vpu, no adenine, 37° C.
Vpu protein, sequence (P05919 whole entry): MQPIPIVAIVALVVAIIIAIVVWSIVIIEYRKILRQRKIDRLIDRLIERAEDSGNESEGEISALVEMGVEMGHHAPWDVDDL

MHV (strain MHV-A59) [1] = conditions: L929 cells
MHV (strain MHV-A59) [2] = test: microbe, parasite or virus in culture; conditions: Murine coronavirus, L929, read-out: Percent reduction in Plaque number/# experiments
229E-CoV E-protein = 229E-CoV E-protein (Human coronavirus 229E, UniProt P19741); test: Bacterial bio-assay for 229E-CoV E-protein; conditions: halo of growth score; E. coli expressing E protein at 37° C.
229E-CoV E-protein, sequence (P19741 whole entry): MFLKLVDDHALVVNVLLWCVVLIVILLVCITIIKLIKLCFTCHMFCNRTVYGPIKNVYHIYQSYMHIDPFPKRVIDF

human coronavirus OC43 = test: microbe, parasite or virus in culture; assay type: cell-based; conditions: Betacoronavirus 1, OC43, MRC5, 120 h, MRC-5 cells, 5 days post infection
EAV (strain Bucyrus) = test: EAV plaque reduction assay in BHK-21 cells; assay type: cell-based; conditions: Equine arteritis virus; EAV plaques in BHK-21 cells
Protocol: To determine the antiviral activity of compounds against EAV replication (strain Bucyrus; ATCC VR-796), an assay measuring reduction in the number of plaques formed in monolayers of EAV infected BHK-21 cells (ATCC CCL-10) was developed: […] Plates were subsequently incubated at 37° C. […] Plaques were counted in all wells and the percentage reduction in plaque number compared to solvent control was calculated. Measurements were performed in duplicate to quadruplicate wells.

HIV = assay type: cell-based; conditions: for At least 1x log reduction seen in p24 assay?: Table 19b, yes/no
[3] = target: SARS E protein ion channel (Severe acute respiratory syndrome coronavirus, UniProt P59637); assay type: biochemical, SARS-CoV
[4] = tested on: porcine respiratory coronavirus (PRCV) strain AR310; test: PRCV plaque assay in ST cells; assay type: cell-based; conditions: Alphacoronavirus 1; PRCV plaques in ST cells
bovine coronavirus (BCV) = test: BCV plaque assay in MDBK cells; assay type: cell-based; conditions: Betacoronavirus 1; BCV plaques in MDBK cells
[5] = target: Dengue virus M protein C-terminal peptide (Dengue virus type 1, UniProt P33478); test: Dengue virus M protein C-terminal peptide ion channel in lipid bilayers; assay type: biochemical; conditions: final concentration of HMA 100 μM in cis chamber
Dengue virus M protein C-terminal peptide, sequence (P33478 241-280): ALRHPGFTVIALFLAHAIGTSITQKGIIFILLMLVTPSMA
Protocol: The dengue virus M protein C-terminal peptide (DMVC) was dissolved in 2,2,2-trifluorethanol (TFE) at 0.05 mg/ml to 1 mg/ml. […] Channel activity was seen within 15-30 min.
Solutions of 50 mM HMA were prepared by first making a 500 mM solution in DMSO. This solution was further diluted to 50 mM HMA using 0.1 M HCl. 2 μl of the 50 mM HMA was added to the cis chamber after channel activity was seen. The cis chamber contained 1 ml of solution making the final concentration of HMA 100 μM.

[6] = tested on: SARS-CoV (Hong Kong strain); assay type: cell-based, SARS coronavirus; conditions: for decrease in virus titre: 10 uM; for Titre (% control): 48 hours; for Average TCID50 (×10^6): 48 hours post infection
[7] = target: 229E E protein ion channel (Human coronavirus 229E, UniProt P19741); test: 229E E protein ion channel in planar lipid bilayers; assay type: biochemical; conditions: 100 μM added to the cis chamber; FIG. 10
229E E protein ion channel, sequence (P19741 whole entry): as the sequence (P19741 whole entry) above
Protocol: The 229E E synthetic peptide was dissolved in 2,2,2-trifluorethanol (TFE) at 0.05 mg/ml to 1 mg/ml. […] Ionic currents, indicating channel activity in the bilayer, were typically detected within 15-30 min. After channels were detected the holding potential across the bilayer was varied between −100 mV and +100 mV to characterise the size and polarity of current flow and enable the reversal potential to be determined.
To test compounds for their ability to block or otherwise inhibit the ion channel formed by 229E E protein, small aliquots of solutions containing the compounds were added to the aqueous solutions bathing planar lipids in which the peptide channel activity had been reconstituted and the effect of the compound addition on the ionic currents was recorded and measured.
Compound stock solutions were typically prepared at 500 mM in DMSO. This solution was further diluted to 50 mM, or lower concentration in 50% DMSO/50% methanol and 2 μl of the appropriately diluted compound was added to the cis and/or trans chambers to yield the desired final concentration.

Dengue 1 strain Hawaii = test: Dengue cytoproliferation assay in LLC-MK2 cells (Alamar Blue); assay type: cell-based, Dengue virus; conditions: 7 days
[8] = Table 19a, rank among 12 compounds, 1 = highest score

SARS-CoV E protein, sequence (P59637 whole entry, looked up): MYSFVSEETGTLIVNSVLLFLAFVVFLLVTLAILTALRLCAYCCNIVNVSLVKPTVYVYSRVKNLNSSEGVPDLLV

Row | SMILES | SARS E protein Inhibition (score/# of times tested) (SARS-CoV E protein) | Vpu Inhibition (score/# of times tested) (Vpu protein) | Percent reduction in Plaque number/# experiments (MHV (strain MHV-A59) [1]; 1 uM) | Percent reduction in Plaque number/# experiments (MHV (strain MHV-A59) [1]; 10 uM) | 229E E protein Inhibition (score) (229E-CoV E-protein) | inhibition at 2.5 µM (human coronavirus OC43) [%] | IC50 (EAV (strain Bucyrus)) [µM] | inhibition at 1 µM (MHV (strain MHV-A59) [2]) [%] | At least 1x log reduction seen in p24 assay? (HIV) | % Reduction of average current by 100 μM [3] [%] | EC50 [4] [µM] | EC50 (bovine coronavirus (BCV)) [µM] | Bacterial assay rank order (Vpu protein; [8]) | Bacterial assay rank order (Vpu protein; Table 19b) | Vpu Bacterial score (Vpu protein; Table 19b) | Percent reduction in Plaque number/# experiments (MHV (strain MHV-A59) [1]; 20 uM) | other results
1 | N=C(N)NC(=O)Cc1cccc2ccccc12 [2-(1-napthyl)acetoylguanidine] | 1.50/1 score | 1.56/2 score | 11/1% | 02/1% | 0.8 |  |  |  |  |  |  |  |  |  |  |  | inhibition at 20 µM (MHV (strain MHV-A59) [2]): -19%
2 | CC(C)(C)c1ccccc1/C=C/C(=O)NC(=N)N [2-t-butylcinnamoylguanidine] | 1.86/1 score | 2.13/2 score | 37/1% | 98/2% | 3.9 | 4 | 1 |  |  |  |  |  |  |  |  |  | 
3 | N=C(N)NC(=O)/C=C/c1cccc(C2=CCCCC2)c1 [3-(cyclohex-1-en-1-yl)cinnamoylguanidine] | 3.75/1 score | 2.5/2 score |  | 2/2% | 2.4 |  |  | -19 |  |  |  |  |  |  |  |  | 
4 | NC(N)=NC(=O)c1nc(Cl)c(N2CCCCCC2)nc1N [5-(N,N-hexamethylene)amiloride] | 1.2/3 score | 1.9/31 score | 13/2% | 89/1% | 1.9 | 30 | 7.5 |  | no | 91 ± 7 | 0.06 | 9 | 10 | 10 | 1.9 | 84/2% | Percent of Positive Control (HIV; Drug Conc. 0.625 μM): 30%; Percent of Positive Control (HIV; Drug Conc. 1.25 μM): 19%; Percent of Positive Control (HIV; Drug Conc. 2.5 μM): 50%; Percent of Positive Control (HIV; Drug Conc. 5 μM): 21%; Percent of Positive Control (HIV; Drug Conc. 10 μM): 6%; ion channel activity of the Dengue virus M protein C-terminal peptide (in words) [5]: Inhibits Ion Channel Activity; bacterial growth around site of drug application (FIG. 5) (Vpu protein; 3 μl drop, minimal medium lacking adenine, 37° C. 48 hr): halo of bacterial growth
5 | N=C(N)NC(=O)/C=C/c1cccc(Br)c1 [(3-Bromocinnamoyl)guanidine] | 3.15/27 score | 4.3/24 score | 39/3% | 90/3% | 1.7 | 100 | 10 |  | yes | 87 ± 11 | 11.2 | 3 | 1 | 1 | 4.3 | 95/2% | Percent of Positive Control (HIV; Drug Conc. 0.625 μM): 116%; Percent of Positive Control (HIV; Drug Conc. 1.25 μM): 59%; Percent of Positive Control (HIV; Drug Conc. 2.5 μM): 9%; Percent of Positive Control (HIV; Drug Conc. 5 μM): 1%; Percent of Positive Control (HIV; Drug Conc. 10 μM): 3%
6 | N=C(NC(=O)CCc1ccccc1)NC(=O)CCc1ccccc1 [N,N′-Bis(3-phenylpropanoyl)guanidine, N,N-Bis(3-phenylpropanoyl)guanidine] |  | 0.1/2 score |  | 30/4% | 0.3 |  |  | -8 |  |  |  |  |  |  |  | 41/3% | 
7 | N=C(NC(=O)c1ccc2cc(O)ccc2c1)Nc1ccccc1 [N-(6-Hydroxy-2-napthoyl)-N′-phenylguanidine] | 1.35/3 score | 2.06/2 score |  | 39/1% |  |  |  | -5 |  |  |  |  |  |  |  | 43/1% | 
8 | NC(N)=NC(=O)/C=C/c1ccccc1 [cinnamoylguanidine] | 0.69/3 score | 2.96/12 score | 52/7% | 88/8% | 1.3 | 57 |  |  | yes |  | 0.08 | 42 | 4 | 4 | 3.0 | 97/8% | E protein ion channel activity (in words) [3]: inhibited; also recorded: significantly reduced; SARS E protein N-terminal peptide channel (in words) [3]: blocked; channels formed by full-length E protein (in words) [3]: blocked; reduction of average current across the bilayer [3]: about 4 fold; average current across the bilayer (in words) ([3]; 100 μM): reduced to baseline; decrease in virus titre [6]: approximately 80%; Titre (% control) ([6]; Compound Concentration 2 uM): 82 % control; Average TCID50 (×10^6) ([6]; Compound Concentration 2 uM): 4.4 ×10^6; Titre (% control) ([6]; Compound Concentration 10 uM): 24 % control; Average TCID50 (×10^6) ([6]; Compound Concentration 10 uM): 1.3 ×10^6; current flow through the 229E E ion channel (in words) [7]: greatly reduced current flow; Antiviral Percent of Negative Control (Dengue 1 strain Hawaii; Drug Conc. 0.625 μM): 76.6%; Antiviral Percent of Negative Control (Dengue 1 strain Hawaii; Drug Conc. 1.25 μM): 72.6%; Antiviral Percent of Negative Control (Dengue 1 strain Hawaii; Drug Conc. 2.5 μM): 58.3%; Antiviral Percent of Negative Control (Dengue 1 strain Hawaii; Drug Conc. 5 μM): 38.6%; Antiviral Percent of Negative Control (Dengue 1 strain Hawaii; Drug Conc. 10 μM): 17.1%
9 | N=C(N)NC(=O)/C=C/c1cccc2ccccc12 [trans-3-(1-napthyl)acryloylguanidine] | 3.38/2 score | 2.9/3 score | 34/3% | 86/3% | 3.7 | 100 | 7.5 |  | yes | 66 ± 2 | 19.1 | 13 | 5.5 | 5.5 | 2.9 | 95/2% | reduction in virus titre ([6]; 2 μM): approximately 50%; decrease in virus titre [6]: approximately 80%; Titre (% control) ([6]; Compound Concentration 2 uM): 46 % control; Average TCID50 (×10^6) ([6]; Compound Concentration 2 uM): 2.45 ×10^6; Titre (% control) ([6]; Compound Concentration 10 uM): 22 % control; Average TCID50 (×10^6) ([6]; Compound Concentration 10 uM): 1.15 ×10^6; Antiviral Percent of Negative Control (Dengue 1 strain Hawaii; Drug Conc. 0.625 μM): 77.7%; Antiviral Percent of Negative Control (Dengue 1 strain Hawaii; Drug Conc. 1.25 μM): 73.7%; Antiviral Percent of Negative Control (Dengue 1 strain Hawaii; Drug Conc. 2.5 μM): 38.7%; Antiviral Percent of Negative Control (Dengue 1 strain Hawaii; Drug Conc. 5 μM): 12.4%; Antiviral Percent of Negative Control (Dengue 1 strain Hawaii; Drug Conc. 10 μM): 6.8%
